The structures appear in SMILES notation.

The text below walks through data of US20100197688A1, “EPHA4 RTK INHIBITORS FOR TREATMENT OF NEUROLOGICAL AND NEURODEGENERATIVE DISORDERS AND CANCER” (priority 2008, published 2010).

For data set [1], the system named is C2C12 cells. The experiment in a line: Proliferation assay (cell confluence), C2C12 cells. The class given is cell-based, mouse. To be noted: at 5 μM. As for the experimental part: (§1) C2C12 were plated at 15,000 cells per well and then differentiated into myotubes with DMEM supplemented with 2% horse serum for 3 days in 24 well ImageLock™ plate (Essen Instruments, Mich., USA). Primary Rat cortical astrocytes were plated at 3.105 cells/ml onto 24 well ImageLock™ plate.
(§2) Cells were placed into the IncuCyte™ at 37° C. and 95% CO2/5% O2, for two to three days. During this time, the cells within each well were repeatedly imaged at fixed time intervals (every three hours). The IncuCyte™ system automatically monitored the proliferation using the percentage of confluence. Percent of confluence can be graphed over time to evaluate the characteristics of proliferation in the presence of pharmacological agents.
(§3) […] The percentage of reduction of cell confluence was calculated from the AUCs in comparison with the AUCs of the control wells (1% DMSO).

For data set [2], the system named is Jak2/Stat3 activation with Interferon Gamma in MCF-7 cells. Put plainly: Cell-based counterscreen assay (IFN-γ activated Jak2/Stat3, pGAS-luciferase). To be noted: for IC50: Homo sapiens, MCF7, inflexion point, read-out: Cell Counter Screen Assay IP. An excerpt: EphA4 cell-based assay was based on the signaling pathway of EphA4, which involves activation of the tyrosine kinase Jak2 and the transcriptional activator Stat3. However, pharmacological agents could also interfere downstream of EphA4 signaling and particularly on Jak2 activity. To counterscreen this potential effect unrelated to EphA4 activity, a new assay was designed based on direct activation of the tyrosine kinase Jak2 and the transcriptional activator Stat3 with Interferon Gamma (IFN-γ).
MCF-7 cells were maintained in MEM growth media, supplemented with 10% fetal bovine serum, 2 mM L-glutamine, 1.5 g/L sodium bicarbonate, 0.1 mM non-essential amino acids, 1 mM sodium pyruvate, and 0.01 mg/ml bovine insulin. For the luciferase assay MCF-7 cells were co-transfected the next day with […] of pGAS-Luc and […] of empty vector pRL-CMV, which encoded the Renilla luciferase, and was included in the transfection mix for normalization. Six hours after transfection the cells were trypsinized and plated at 4.105 cells/ml into 96 well Black/Clear Poly-D-Lysine coated plates (Biocoat) that had been pre-spotted with compounds. […] Cells were lysed the next day using the Reporter Lysis Buffer (Promega), and the luciferase activity was measured using the Dual Luciferase Assay (Promega) following the manufacturer's directions. The Firefly and Renilla luminescences are read consecutively on a Top-Count (Perkin-Elmer).
Results are expressed as a ratio of the two luminsescence: Firefly Luciferase/Renilla Luciferase. Cell viability was assessed on parallel plates using the Cell Glo Assay (Promega) following the manufacturer's directions. Results are expressed as percent of cell death in comparison with vehicle-treated wells.
(§4) Compounds were titrated in duplicate at 10 points concentration starting at 100 μM with a 1.5 fold increment. Concentration-response curves were represented and the concentrations at the inflexion point (IP) were calculated. The maximum effect was given by the maximum percent inhibition calculated from the results of the control wells (containing only DMSO).
Background: A counterscreen serves to expose hits that act by an unwanted route or on another target.

Data set [3] addresses T1, human form of EphA4 receptor (Homo sapiens, UniProt P54764).
T1 construct: expressed in transfected cells; host or cells: CHO-K1, transiently transfected with EphA4 in pCMV6-XL5
Put plainly: EphA4 cell-based assay (pGAS-luciferase in EphA4-transfected CHO-K1 cells). To be noted: for IC50: inflexion point, read-out: EphA4 Cell Assay IP; for EphA4 Cell Assay maximum percent inhibition: value in parentheses.
Text: A cell-based assay was used to measure the potency of the compounds on the human form of EphA4 receptor over-expressed in Chinese Hamster Ovary cell line, CHO-K1 cells (Merck Collection). The cell assay was based on a novel signaling pathway of EphA4, which involves activation of the tyrosine kinase Jak2 and the transcriptional activator Stat3 (39).
Reagents: The expression constructs of EphA4 were subcloned into the expression vector pCMV6-XL5 (Origene, Md., USA) (clone from Merck Kinase Library). The luciferase construct that was linked to the Stat1-responsive enhancer (pGAS-Luc) was bought from Stratagene (USA). The renilla construct that linked to an empty vector CMV was bought from Promega (USA).
(§5) Transfection and Luciferase Assay: CHO-K1 cells were plated in T-175 cell culture bottle in DMEM medium supplemented with 10% fetal bovine serum, 1 mM sodium pyruvate, 2 mM L-glutamine and 1.5 g/L sodium bicarbonate. When cell reached 70-80% confluence, transfections were performed in T-175 culture flasks, using Lipofectamine 2000™ transfection reagent (Invitrogen) according to the manufacturer's directions. For the luciferase assay CHO-K1 cells were co-transfected the next day with […] of pGAS-Luc, 70 mg of EphA4, and 5 mg of empty vector pRL-CMV, which encoded the Renilla luciferase, and was included in the transfection mix for normalization. Six hours after transfection the cells were trypsinized and plated at 4.105 cells/ml into 96 well Black/Clear Poly-D-Lysine coated plates (Biocoat) that had been pre-spotted with compounds. Cells were lysed the next day using the Reporter Lysis Buffer (Promega), and the luciferase activity was measured using the Dual Luciferase Assay (Promega) following the manufacturer's directions. The Firefly and Renilla luminescences are read consecutively on a Top-Count (Perkin-Elmer). Results are expressed as a ratio of the two luminsescence: Firefly Luciferase/Renilla Luciferase. Cell viability was assessed on parallel plates using the Cell Glo Assay (Promega) following the manufacturer's directions. Results are expressed as percent of cell death in comparison with vehicle-treated wells.
as §4

Data set [4] relates to C2C12 cells. The experiment in a line: Toxicity (percent of cell death), C2C12 cells. The class given is cell-based. Particulars: 20 μM. The procedure: EphA4 kinase inhibition is assessed by both an enzymatic assay measuring the phosphorylation of a purified recombinant EphA4 kinase and a cell-based assay using the activation of pGas-Luciferase system in EphA4-transfected CHO-K1 cells. The functional effects of EphA4 RTK inhibitors on cell motility and proliferation is evaluated by the scratch wound assay. The effect of EphA4 RTK inhibitors is also directly measured on the cell confluence. The counterscreen assays (cell counterscreen, Src, Jak2 and P38α kinase) identified other potential inhibitory activities of compounds unrelated to EphA4 kinase. The toxicity is measured by the percent of cell death in the different cell assays. Values represent IC50 and IP in μM calculated from the dose-response curves. Values in parentheses give the maximum percent inhibition.

The subject of another data set is CHO-K1 cells. Put plainly: Cell viability (Cell Glo) in EphA4 cell assay. The class given is cell-based, Chinese Hamster. The procedure:
as §5, with “Six hours after transfection the cells were trypsinized and plated at 4.105 cells/ml into 96 well Black/Clear Poly-D-Lysine coated plates (Biocoat) that had been pre-spotted with compounds.” left out

Data set [5] concerns Primary Rat cortical astrocytes. Put plainly: Proliferation assay (cell confluence), astrocytes. The class given is cell-based. Particulars: at 5 μM. The procedure:
as §1, §2, §3

The target in the next data set is T2, P38alpha kinase (Homo sapiens, UniProt Q16539).
T2 construct: purchased Dundee Library
T2 sequence (Q16539 whole entry): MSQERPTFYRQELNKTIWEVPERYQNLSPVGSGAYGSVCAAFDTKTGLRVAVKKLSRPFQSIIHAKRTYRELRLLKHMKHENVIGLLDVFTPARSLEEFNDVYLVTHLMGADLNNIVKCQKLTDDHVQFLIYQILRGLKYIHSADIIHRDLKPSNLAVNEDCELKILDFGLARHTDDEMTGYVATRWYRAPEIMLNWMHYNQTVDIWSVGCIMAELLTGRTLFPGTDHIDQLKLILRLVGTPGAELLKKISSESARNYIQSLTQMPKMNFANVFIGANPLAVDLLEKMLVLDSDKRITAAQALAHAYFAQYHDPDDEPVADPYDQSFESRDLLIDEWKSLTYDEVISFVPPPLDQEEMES
The experiment in a line: P38 alpha kinase counterscreen assay (Caliper). Format: biochemical. As for the experimental part: A counterscreen assay was performed to measure p38alpha kinase activity using the Caliper System (LifeSciences, USA). This system is based on the microfluidic technology. P38 alpha kinase activity was measured by the shift in mobility of the non-phosphorylated form when separated by electrophoresis and detected via LED (Light Emitting Diode) induced fluorescence. This assay was automated following the manufacturer's protocol. P38alpha kinase and its substrate GST-MK2 were bought from Dundee Library.
Compounds were titrated, concentration-response curves were represented and the concentrations for 50% inhibition (IC50) were calculated.

T1 sequence (P54764 20-986): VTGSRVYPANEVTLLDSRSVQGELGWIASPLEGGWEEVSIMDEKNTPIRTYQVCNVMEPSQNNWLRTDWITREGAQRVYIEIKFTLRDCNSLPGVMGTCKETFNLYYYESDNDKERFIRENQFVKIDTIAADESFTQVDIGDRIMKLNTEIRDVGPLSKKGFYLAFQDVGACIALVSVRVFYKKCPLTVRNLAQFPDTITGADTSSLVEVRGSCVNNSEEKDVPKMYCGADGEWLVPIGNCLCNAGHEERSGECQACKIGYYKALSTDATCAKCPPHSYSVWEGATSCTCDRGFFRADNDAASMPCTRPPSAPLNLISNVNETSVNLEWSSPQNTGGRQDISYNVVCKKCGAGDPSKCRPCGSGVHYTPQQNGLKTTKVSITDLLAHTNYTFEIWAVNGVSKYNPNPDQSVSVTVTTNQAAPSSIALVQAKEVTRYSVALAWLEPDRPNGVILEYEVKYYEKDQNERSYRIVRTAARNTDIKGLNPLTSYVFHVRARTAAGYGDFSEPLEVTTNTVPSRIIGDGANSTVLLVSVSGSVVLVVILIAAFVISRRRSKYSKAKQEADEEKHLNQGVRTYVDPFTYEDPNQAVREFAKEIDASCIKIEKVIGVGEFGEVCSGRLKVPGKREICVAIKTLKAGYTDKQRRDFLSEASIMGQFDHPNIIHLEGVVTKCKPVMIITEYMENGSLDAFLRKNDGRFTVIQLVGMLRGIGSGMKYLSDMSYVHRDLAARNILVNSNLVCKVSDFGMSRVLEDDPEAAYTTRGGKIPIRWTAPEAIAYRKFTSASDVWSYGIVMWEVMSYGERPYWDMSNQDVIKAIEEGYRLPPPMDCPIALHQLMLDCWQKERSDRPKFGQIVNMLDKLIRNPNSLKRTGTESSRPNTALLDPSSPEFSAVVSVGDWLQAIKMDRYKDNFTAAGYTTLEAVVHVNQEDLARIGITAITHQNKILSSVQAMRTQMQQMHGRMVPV

`Cc1ccc(NC(=O)c2cccc(C(F)(F)F)c2)cc1-c1ccc(-n2cccn2)cc1` [Example 120]: in the data set with C2C12 cells [1], the “% Reduction Confluence C2C12 Cells” value is 33.3% at 5 μM. The IC50 in data set [2] is > 100 µM. Also, in data set [3], the IC50 is 5.6 µM and the “EphA4 Cell Assay maximum percent inhibition” value turned out to be 50%. Also, the “Max Toxicity C2C12 in cells % of cell death” value with C2C12 cells [4] is 10% 20 μM. The “Max Toxicity Cell Assay % of cell death” value with CHO-K1 cells (at 25 μM) is 8% at 25 μM.
Regarding `Cc1ccc(NC(=O)c2cccc(C(F)(F)F)c2)cc1-c1ccc(O)c(NC=O)c1` [Example 133], the “% Reduction Confluence C2C12 Cells” value in the data set on C2C12 cells [1] is reported as 17.5% at 5 μM. Also, the IC50 in data set [2] was 1.7 µM; in data set [3], 8.3 µM; at P38alpha kinase, 6.9 µM. The “Cell Counter Screen Assay max inhibition in %” value in data set [2] (value in parentheses) is on record as 99%. In data set [3], the “EphA4 Cell Assay maximum percent inhibition” value turned out to be 42%. The “Max Toxicity C2C12 in cells % of cell death” value in the data set on C2C12 cells [4] was 10% 20 μM. Besides, in data set [5], the “% Reduction of Confluence Astrocytes” value stood at 28.2% at 5 μM. The “Max Toxicity Cell Assay % of cell death” value in the data set with CHO-K1 cells (at 50 μM) came to 15% at 50 μM.
